{"source": "patent US20240092835A1", "about": "“NOVEL PEPTIDES CAPABLE OF ALTERING NK CELL ACTIVITY” (Massachusetts Institute of Technology, priority 2022, published 2024)", "key": {"[1]": {"target": "T1, HLA-E (Homo sapiens, UniProt P13747)", "T1 construct": "expressed in transfected cells; host or cells: RMA-S/HLA-E cells (antigen processing-defective lymphoma cell line)", "T1 sequence (P13747 22-358)": "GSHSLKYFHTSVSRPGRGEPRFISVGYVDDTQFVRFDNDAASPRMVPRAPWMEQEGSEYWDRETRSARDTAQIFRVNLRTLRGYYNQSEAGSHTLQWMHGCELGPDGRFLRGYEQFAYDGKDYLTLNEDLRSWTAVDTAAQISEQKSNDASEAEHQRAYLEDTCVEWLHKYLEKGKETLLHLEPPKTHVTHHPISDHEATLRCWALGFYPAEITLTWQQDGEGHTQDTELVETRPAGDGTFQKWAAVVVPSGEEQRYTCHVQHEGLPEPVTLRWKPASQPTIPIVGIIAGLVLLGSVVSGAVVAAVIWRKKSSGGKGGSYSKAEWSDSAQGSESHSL", "T1 sequence (P61769 21-119 partner)": "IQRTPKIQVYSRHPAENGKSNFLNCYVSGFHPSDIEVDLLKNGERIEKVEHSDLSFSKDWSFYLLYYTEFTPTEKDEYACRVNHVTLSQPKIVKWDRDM", "assay": "HLA-E surface stabilization assay with RMA-S/HLA-E cells", "type": "cell-based", "conditions": "30 μM peptide, 16 hours, anti-HLA-E antibody", "procedure": "HLA-E surface expression was assessed by measuring geometric mean fluorescence intensity (GeoMFI) in RMA-S cells following immunofluorescence staining with an anti-HLA-E antibody (Table 14). Increased GeoMFI was indicative of increased HLA-E surface expression stability following novel peptide exposures (FIG. 3)."}, "[2]": {"tested_on": "NKG2A−/NKG2C− NK cells", "assay": "NK cell activation markers in control NKG2A-/NKG2C- NK cells incubated with peptide and K562 expressing HLA-E", "type": "cell-based, human", "method_in_brief": "(§1)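 Human myelogenous leukemia K562 cells displaying HLA-E carry the test peptides (human or HCMV origin) and are presented to NK cells; surface activation markers are scored by percent positive cells.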"}, "[3]": {"tested_on": "NKG2A−/NKG2C+ NK cells", "assay": "NK cell activation markers in NKG2A-/NKG2C+ NK cells incubated with peptide and K562 expressing HLA-E (activation)", "type": "cell-based, human", "conditions": "for percentage of CCL3+ NK cells / percentage of CD107+ NK cells / percentage of IFNG+ NK cells / percentage of TNF+ NK cells: NKG2A-/NKG2C+ NK cells, K562/HLA-E", "method_in_brief": "as §1"}, "[4]": {"tested_on": "NKG2A+/NKG2C− NK cells", "assay": "NK cell activation markers in NKG2A+/NKG2C- NK cells incubated with peptide and K562 expressing HLA-E (inhibition)", "type": "cell-based, human", "conditions": "for percentage of CCL3+ NK cells / percentage of CD107a+ NK cells / percentage of IFNG+ NK cells / percentage of TNF+ NK cells: NKG2A+/NKG2C- NK cells, K562/HLA-E", "method_in_brief": "as §1"}, "[5]": {"conditions": "K562 expressing HLA-E, CD107a, IFNG, TNF, CCL3"}}, "data": [{"sequence": "VMPGRTLCF [human11, peptide TACR3 226-234 derived from the human proteome]", "values": [{"measurement": "HLA-E surface expression stability (GeoMFI)", "setting": "[1]; Trial 1", "value": 3152, "unit": "GeoMFI"}, {"measurement": "HLA-E surface expression stability (GeoMFI)", "setting": "[1]; Trial 2", "value": 2914, "unit": "GeoMFI"}, {"measurement": "HLA-E surface expression stability (GeoMFI)", "setting": "[1]; Trial 3", "value": 3432, "unit": "GeoMFI"}, {"measurement": "HLA-E surface expression stability (GeoMFI)", "setting": "[1]; Trial 4", "value": 3610, "unit": "GeoMFI"}, {"measurement": "percentage CCL3+ NK cells", "setting": "[2]; Trial 1", "value": 27.1, "unit": "%"}, {"measurement": "percentage CD107+ NK cells", "setting": "[2]; Trial 1", "value": 21.7, "unit": "%"}, {"measurement": "percentage TNF+ NK cells", "setting": "[2]; Trial 1", "value": 3.75, "unit": "%"}, {"measurement": "percentage of IFNG+ NK cells", "setting": "[2]; Trial 1", "value": 11.4, "unit": "%"}, {"measurement": "percentage CCL3+ NK cells", "setting": "[2]; Trial 2", "value": 49.5, "unit": "%"}, {"measurement": "percentage CD107+ NK cells", "setting": "[2]; Trial 2", "value": 28.7, "unit": "%"}, {"measurement": "percentage TNF+ NK cells", "setting": "[2]; Trial 2", "value": 7.72, "unit": "%"}, {"measurement": "percentage of IFNG+ NK cells", "setting": "[2]; Trial 2", "value": 21.3, "unit": "%"}, {"measurement": "percentage CCL3+ NK cells", "setting": "[2]; Trial 3", "value": 44.1, "unit": "%"}, {"measurement": "percentage CD107+ NK cells", "setting": "[2]; Trial 3", "value": 38.6, "unit": "%"}, {"measurement": "percentage TNF+ NK cells", "setting": "[2]; Trial 3", "value": 14.8, "unit": "%"}, {"measurement": "percentage of IFNG+ NK cells", "setting": "[2]; Trial 3", "value": 33.5, "unit": "%"}, {"measurement": "percentage CCL3+ NK cells", "setting": "[2]; Trial 4", "value": 30.9, "unit": "%"}, {"measurement": "percentage CD107+ NK cells", "setting": "[2]; Trial 4", "value": 28.9, "unit": "%"}, {"measurement": "percentage TNF+ NK cells", "setting": "[2]; Trial 4", "value": 9.48, "unit": "%"}, {"measurement": "percentage of IFNG+ NK cells", "setting": "[2]; Trial 4", "value": 18.5, "unit": "%"}, {"measurement": "percentage CCL3+ NK cells", "setting": "[2]; Trial 5", "value": 18.3, "unit": "%"}, {"measurement": "percentage CD107+ NK cells", "setting": "[2]; Trial 5", "value": 14.9, "unit": "%"}, {"measurement": "percentage TNF+ NK cells", "setting": "[2]; Trial 5", "value": 3.82, "unit": "%"}, {"measurement": "percentage of IFNG+ NK cells", "setting": "[2]; Trial 5", "value": 10.5, "unit": "%"}, {"measurement": "percentage CCL3+ NK cells", "setting": "[2]; Trial 6", "value": 13.7, "unit": "%"}, {"measurement": "percentage CD107+ NK cells", "setting": "[2]; Trial 6", "value": 14.8, "unit": "%"}, {"measurement": "percentage TNF+ NK cells", "setting": "[2]; Trial 6", "value": 2.69, "unit": "%"}, {"measurement": "percentage of IFNG+ NK cells", "setting": "[2]; Trial 6", "value": 6.09, "unit": "%"}, {"measurement": "effect on NKG2A−/NKG2C+ NK cell activation (in words)", "setting": "[3]; [5]", "value": "strong activating effects"}, {"measurement": "percentage of CCL3+ NK cells", "setting": "[3]; Trial 1", "value": 72.1, "unit": "%"}, {"measurement": "percentage of CD107+ NK cells", "setting": "[3]; Trial 1", "value": 70.6, "unit": "%"}, {"measurement": "percentage of IFNG+ NK cells", "setting": "[3]; Trial 1", "value": 63.1, "unit": "%"}, {"measurement": "percentage of TNF+ NK cells", "setting": "[3]; Trial 1", "value": 57.2, "unit": "%"}, {"measurement": "percentage of CCL3+ NK cells", "setting": "[3]; Trial 2", "value": 83.5, "unit": "%"}, {"measurement": "percentage of CD107+ NK cells", "setting": "[3]; Trial 2", "value": 79.9, "unit": "%"}, {"measurement": "percentage of IFNG+ NK cells", "setting": "[3]; Trial 2", "value": 76.4, "unit": "%"}, {"measurement": "percentage of TNF+ NK cells", "setting": "[3]; Trial 2", "value": 71.3, "unit": "%"}, {"measurement": "percentage of CCL3+ NK cells", "setting": "[3]; Trial 3", "value": 80.8, "unit": "%"}, {"measurement": "percentage of CD107+ NK cells", "setting": "[3]; Trial 3", "value": 81, "unit": "%"}, {"measurement": "percentage of IFNG+ NK cells", "setting": "[3]; Trial 3", "value": 76.8, "unit": "%"}, {"measurement": "percentage of TNF+ NK cells", "setting": "[3]; Trial 3", "value": 72, "unit": "%"}, {"measurement": "percentage of CCL3+ NK cells", "setting": "[3]; Trial 4", "value": 65, "unit": "%"}, {"measurement": "percentage of CD107+ NK cells", "setting": "[3]; Trial 4", "value": 66.8, "unit": "%"}, {"measurement": "percentage of IFNG+ NK cells", "setting": "[3]; Trial 4", "value": 59.4, "unit": "%"}, {"measurement": "percentage of TNF+ NK cells", "setting": "[3]; Trial 4", "value": 53.6, "unit": "%"}, {"measurement": "percentage of CCL3+ NK cells", "setting": "[3]; Trial 5", "value": 69.8, "unit": "%"}, {"measurement": "percentage of CD107+ NK cells", "setting": "[3]; Trial 5", "value": 70.2, "unit": "%"}, {"measurement": "percentage of IFNG+ NK cells", "setting": "[3]; Trial 5", "value": 65, "unit": "%"}, {"measurement": "percentage of TNF+ NK cells", "setting": "[3]; Trial 5", "value": 62.5, "unit": "%"}, {"measurement": "percentage of CCL3+ NK cells", "setting": "[3]; Trial 6", "value": 39.9, "unit": "%"}, {"measurement": "percentage of CD107+ NK cells", "setting": "[3]; Trial 6", "value": 42.5, "unit": "%"}, {"measurement": "percentage of IFNG+ NK cells", "setting": "[3]; Trial 6", "value": 35.3, "unit": "%"}, {"measurement": "percentage of TNF+ NK cells", "setting": "[3]; Trial 6", "value": 33.5, "unit": "%"}, {"measurement": "effect on NKG2A+/NKG2C− NK cell inhibition (in words)", "setting": "[4]; [5]", "value": "strong inhibitory"}, {"measurement": "percentage of CCL3+ NK cells", "setting": "[4]; Trial 1", "value": 4.05, "unit": "%"}, {"measurement": "percentage of CD107a+ NK cells", "setting": "[4]; Trial 1", "value": 0.35, "unit": "%"}, {"measurement": "percentage of IFNG+ NK cells", "setting": "[4]; Trial 1", "value": 0.13, "unit": "%"}, {"measurement": "percentage of TNF+ NK cells", "setting": "[4]; Trial 1", "value": 0.05, "unit": "%"}, {"measurement": "percentage of CCL3+ NK cells", "setting": "[4]; Trial 2", "value": 7.9, "unit": "%"}, {"measurement": "percentage of CD107a+ NK cells", "setting": "[4]; Trial 2", "value": 1.08, "unit": "%"}, {"measurement": "percentage of IFNG+ NK cells", "setting": "[4]; Trial 2", "value": 0.53, "unit": "%"}, {"measurement": "percentage of TNF+ NK cells", "setting": "[4]; Trial 2", "value": 0.21, "unit": "%"}, {"measurement": "percentage of CCL3+ NK cells", "setting": "[4]; Trial 3", "value": 3.93, "unit": "%"}, {"measurement": "percentage of CD107a+ NK cells", "setting": "[4]; Trial 3", "value": 1.25, "unit": "%"}, {"measurement": "percentage of IFNG+ NK cells", "setting": "[4]; Trial 3", "value": 0.6, "unit": "%"}, {"measurement": "percentage of TNF+ NK cells", "setting": "[4]; Trial 3", "value": 0.35, "unit": "%"}, {"measurement": "percentage of CCL3+ NK cells", "setting": "[4]; Trial 4", "value": 1.77, "unit": "%"}, {"measurement": "percentage of CD107a+ NK cells", "setting": "[4]; Trial 4", "value": 1.09, "unit": "%"}, {"measurement": "percentage of IFNG+ NK cells", "setting": "[4]; Trial 4", "value": 0.29, "unit": "%"}, {"measurement": "percentage of TNF+ NK cells", "setting": "[4]; Trial 4", "value": 0.23, "unit": "%"}, {"measurement": "percentage of CCL3+ NK cells", "setting": "[4]; Trial 5", "value": 2.68, "unit": "%"}, {"measurement": "percentage of CD107a+ NK cells", "setting": "[4]; Trial 5", "value": 0.66, "unit": "%"}, {"measurement": "percentage of IFNG+ NK cells", "setting": "[4]; Trial 5", "value": 0.09, "unit": "%"}, {"measurement": "percentage of TNF+ NK cells", "setting": "[4]; Trial 5", "value": 0, "unit": "%"}, {"measurement": "percentage of CCL3+ NK cells", "setting": "[4]; Trial 6", "value": 1.02, "unit": "%"}, {"measurement": "percentage of CD107a+ NK cells", "setting": "[4]; Trial 6", "value": 1.02, "unit": "%"}, {"measurement": "percentage of IFNG+ NK cells", "setting": "[4]; Trial 6", "value": 0.05, "unit": "%"}, {"measurement": "percentage of TNF+ NK cells", "setting": "[4]; Trial 6", "value": 0, "unit": "%"}]}]}
